Experimental data taken from article PMC7002685, “Inhibition of vascular calcification by inositol phosphates derivatized with ethylene glycol oligomers” (Nature Communications, 2020).
Values joined by “and” are separate entries in the source; they are usually repeats but may differ in a detail not shown here. Equal entries are not always repeated. Where two headings read alike, the source gives them in different places.

How the values were obtained:
Muscarinic M2 = target: T1, Muscarinic M2 (Homo sapiens, UniProt P08172); experiment: Off-target 252710; type: binding
T1 construct: purchased Eurofins Panlabs Discovery Services Taiwan, Ltd
Description: (§1) The potential off-target activity of 10 µM (OEG2)2-IP4 was assessed against a panel of 87 enzymes, receptors, or ion channels that are used in standard safety pharmacology screens.
(§2) 3.2. Off-target screening assay
The experiments were conducted by a contract research organization (Eurofins Panlabs Discovery Services Taiwan, Ltd.) and details on the respective assays can be retrieved via the catalog number provided in Supplementary Table 11 from the company’s webpage
(§3) (https://www.eurofinsdiscoveryservices.com/). […]
At sacrifice the left tibia of animals of the rat model with dietary adenine/high-phosphate-induced uremia and VC was collected, fixed with 70% v/v EtOH and embedded in methyl methacrylate. The trabecular bone compartment is known to be the most metabolic active i.e. actively re-structured bone compartment in CKD. Therefore, histomorphometric and micro-computed tomography (µCT) analysis of bone was performed on the trabecular compartment. Tibial sections were Goldner-stained for histomorphometric analysis of the proximal metaphysis using the AxioVision Release 4.5 software, as […]
described previously5. […]

[1] = PK i.v. bolus in healthy and adenine/high-phosphate-diet (uremic) rats; type: in vivo, male Sprague-Dawley rats; parameters: plasma concentration (Figure 4g): unit not given here; conditions: for AUC(0-inf) / Cmax / clearance / half-life / AUC(0-t) / MRT last: serum, 10 mg/kg i.v. bolus; for AUC(0-t): read-out: AUC0-240 (converted); for MRT last: read-out: MRT0-240 (converted)
Description: (§4) For many drugs, the PK profile depends on the patient’s renal status. Therefore, (OEG2)2-IP4 PK profile was also determined in an adenine and high-phosphate-diet-induced rat model of uremia, in which the compound was administered after serum creatinine levels had increased by fourfold relative to baseline (Fig. 4g, h). […] Similar results were observed following s.c. administration (Supplementary Table 5).
(§5) To study PK in uremic animals, male Sprague-Dawley rats (Charles River Laboratories, L’Arbresle, France) were housed two per cage with free access to water and standard chow (rat/mouse maintenance diet, SSNIFF Spezialdiäten GmbH, Soest, Germany) and submitted to a 12-h light/dark cycle. Animals were fed a low-protein (2.5%) diet containing high phosphorus (1.3% phosphorus and 0.7% calcium) and 0.3% adenine to induce uremia (SSNIFF Spezialdiäten GmbH). Control animals were fed same diet but without adenine. Every 10 days, a sample of blood was punctured at the tail vein of each animal. Serum and urine creatinine, calcium, and phosphorus were then assessed using standard colorimetric biochemistry analysis (Cobas Mira, Roche, Basel, Switzerland). When a fourfold increase of creatinine was observed compared to control, the rat was considered uremic and suitable for PK experiments. The method was validated using eight animals on control- and adenine-supplemented diet respectively. For PK studies, on the morning of the experimental day, a catheter was inserted in the right carotid artery under halothane anesthesia. Subsequently, rats were allowed to recover for 3 h and uremic and non-uremic rats, respectively, were assigned to three groups of six rats each. […] Blood aliquots were drawn after drug administration, centrifuged, decanted, and stored at −80 °C until serum drug quantification by LC-MS, as well as analysis of serum creatinine, calcium, and phosphorus (Cobas Mira).
(§6) The bioanalytical method for (OEG2)2-IP4 in rat plasma was further optimized, qualified, and applied to the comparative PK study in adenine and high-phosphate diet-induced VC vs. vitamin D-induced VC animals. The LC-MS/MS analyses were carried out using a Dionex Ultimate RSLC ultra-high-pressure liquid chromatography (UHPLC) system (Thermo Fisher Scientific) coupled with a TSQ Quantiva^TM triple quadrupole mass spectrometer. The samples were stored at 5 °C in the autosampler prior to and during the analyses. […] Gradient elution (solvent A, 20 mM ammonium acetate in water (pH 5); solvent B, ACN) was used according to the program reported in Supplementary Table 18. The injection volume was 10 µL. MS/MS parameters (MRM acquisition, cycle time 0.2 s) for (OEG2)2-IP4 are reported in Supplementary Table 19 and the ESI source, working in negative ionization mode, applied the following parameters: static spray voltage 3000 V ion transfer tube and vaporizer temperatures at 400 and 100 °C, respectively; sheath and auxiliary gas (nitrogen) flow rates at 80 and 3 (arbitrary units). For the quantitative determination in rat plasma, product ion m/z 158.9 was selected because it provided the best sensitivity and selectivity. Calibration curve and quality control samples were prepared by adding 2 μL of working solution to 38 μL rat blank K3EDTA plasma (Biochemed, Winchester, VA) and precipitating plasma protein by addition of 120 μL of MeOH including internal standard OEG11-IP5. Samples were vortexed 1 min and centrifuged at (22,000 × g, 4 °C, 10 min). Supernatants (90 μL) were then transferred into a glass vial with insert and injected onto LC-MS/MS system. Both in adenine and high-phosphate diet-induced VC and vitamin D-induced VC rat PK samples were prepared for analysis in an analogous manner as done for spiked samples (assay volume 40 μL). The LLOQ and LOD in rat plasma for (OEG2)2-IP4 were 50 and 10 ng/mL, respectively. The ULOQ and detection was 50,000 ng/mL.

Dopamine D1 = target: T2, Dopamine D1 (Homo sapiens, UniProt P21728); experiment: Off-target 219500 (D1); type: binding
T2 construct: purchased Eurofins Panlabs Discovery Services Taiwan, Ltd
Description: as §1, §2
The experiments were conducted by a contract research organization (Eurofins Panlabs Discovery
Services Taiwan, Ltd.) and details on the respective assays can be retrieved via the catalog number
provided in Supplementary Table 11 from the company’s webpage
as §3

[2] = PK s.c. in healthy and adenine/high-phosphate-diet (uremic) rats; type: in vivo; conditions: male, Sprague-Dawley, rat, sc; for AUC(0-t): read-out: AUC0-360 (converted)
Description: as §4, §5, §6

[3] = male, Sprague-Dawley, rat, iv, 10 mg/kg, Healthy
[4] = male, Sprague-Dawley, rat, iv, 10 mg/kg, Uremic
[5] = serum, 10 mg/kg, 10 mg/kg s.c., Healthy
[6] = serum, 10 mg/kg, 10 mg/kg s.c., Uremic

T2 sequence (P21728 whole entry): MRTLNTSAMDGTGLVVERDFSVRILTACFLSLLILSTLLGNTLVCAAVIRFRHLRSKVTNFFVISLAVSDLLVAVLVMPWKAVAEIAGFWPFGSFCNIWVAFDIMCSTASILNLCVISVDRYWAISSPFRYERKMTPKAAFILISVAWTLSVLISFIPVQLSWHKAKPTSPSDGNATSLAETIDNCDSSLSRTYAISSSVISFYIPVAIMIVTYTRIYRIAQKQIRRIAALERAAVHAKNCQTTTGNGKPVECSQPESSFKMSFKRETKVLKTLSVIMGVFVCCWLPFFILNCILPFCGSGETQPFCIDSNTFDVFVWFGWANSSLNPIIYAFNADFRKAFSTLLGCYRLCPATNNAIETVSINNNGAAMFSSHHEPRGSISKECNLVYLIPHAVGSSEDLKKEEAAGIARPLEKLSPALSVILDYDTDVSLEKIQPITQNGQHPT
T1 sequence (P08172 whole entry): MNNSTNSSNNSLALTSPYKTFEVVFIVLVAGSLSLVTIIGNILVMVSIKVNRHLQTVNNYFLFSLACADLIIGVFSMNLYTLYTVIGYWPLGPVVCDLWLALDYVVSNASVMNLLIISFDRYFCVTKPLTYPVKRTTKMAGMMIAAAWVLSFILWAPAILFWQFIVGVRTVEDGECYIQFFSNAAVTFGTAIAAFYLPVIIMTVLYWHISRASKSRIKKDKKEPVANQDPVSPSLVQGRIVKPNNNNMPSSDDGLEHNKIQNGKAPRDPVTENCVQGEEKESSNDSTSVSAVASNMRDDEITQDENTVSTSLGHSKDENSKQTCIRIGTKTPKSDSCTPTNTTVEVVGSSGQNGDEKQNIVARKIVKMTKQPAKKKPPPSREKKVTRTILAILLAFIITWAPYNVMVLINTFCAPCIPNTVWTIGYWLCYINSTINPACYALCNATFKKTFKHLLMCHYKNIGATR

COCCOCCO[C@@H]1[C@@H](OP(=O)(O)O)[C@H](OCCOCCOC)[C@@H](OP(=O)(O)O)[C@@H](OP(=O)(O)O)[C@H]1OP(=O)(O)O [(OEG2)2-IP4, 4,6-Di-O-(methoxy-diethyleneglycol)-myo-inositol-1,2,3,5-tetrakis(phosphate)]
inhibition at 10 µM (Muscarinic M2): 4% | fold longer t1/2 in uremic rats ([1]; 10 mg/kg i.v.): 1.6 fold | plasma concentration (Figure 4g) ([1]; Healthy, i.v., Time 5 min, individual rats): 34.3554 and 28.9453 and 26.4893 and 36.6347 and 33.1433 | plasma concentration (Figure 4g) ([1]; Healthy, i.v., Time 0.25 h, individual rats): 30.5208 and 13.9972 and 12.439 and 10.9827 and 13.2633 and 11.7166 | plasma concentration (Figure 4g) ([1]; Healthy, i.v., Time 0.5 h, individual rats): 27.5306 and 9.488 and 4.56 and 3.6178 and 4.794 and 4.014 | plasma concentration (Figure 4g) ([1]; Healthy, i.v., Time 1 h, individual rats): 9.6556 and 4.29 and 0.6765 and 0.5745 and 0.5328 and 0.7985 | plasma concentration (Figure 4g) ([1]; Healthy, i.v., Time 2 h, individual rats): 7.991 and 1.14 and 0.125 and 0.07468 and 0.07899 and 0.1206 | plasma concentration (Figure 4g) ([1]; Healthy, i.v., Time 3 h, individual rats): 3.3004 and 0.5084 and 0.05745 and 0.03303 and 0.0316 and 0.04883 | plasma concentration (Figure 4g) ([1]; Healthy, i.v., Time 4 h, individual rats): 2.7015 and 0.1767 and 0.01436 and 0.02585 and 0.02298 and 0.0316 | plasma concentration (Figure 4g) ([1]; Uremic, i.v., Time 5 min, individual rats): 32.8173 and 29.5312 and 43.7899 and 28.895 and 62.6472 and 41.0266 | plasma concentration (Figure 4g) ([1]; Uremic, i.v., Time 10 min, individual rats): 43.2182 and 28.9366 | plasma concentration (Figure 4g) ([1]; Uremic, i.v., Time 0.25 h, individual rats): 27.5292 and 20.3309 and 31.0464 and 22.8615 | plasma concentration (Figure 4g) ([1]; Uremic, i.v., Time 0.5 h, individual rats): 20.0681 and 12.3154 and 17.5978 and 17.7285 | plasma concentration (Figure 4g) ([1]; Uremic, i.v., Time 1 h, individual rats): 13.305 and 19.9618 and 12.7047 and 6.171 and 9.641 and 11.83 | plasma concentration (Figure 4g) ([1]; Uremic, i.v., Time 1.5 h, individual rats): 9.875 and 10.075 | plasma concentration (Figure 4g) ([1]; Uremic, i.v., Time 2 h, individual rats): 4.81 and 2.841 and 7.088 and 3.03 and 4.689 and 9.284 | plasma concentration (Figure 4g) ([1]; Uremic, i.v., Time 3 h, individual rats): 1.893 and 4.314 and 1.879 and 2.2534 | plasma concentration (Figure 4g) ([1]; Uremic, i.v., Time 4 h, individual rats): 1.159 and 0.6736 and 3.1697 and 1.081 and 1.337 | concentration at 5 min ([1]; male, Sprague-Dawley, rat, plasma, iv, 10 mg/kg, Healthy, i.v., Time 5 min, individual rats, read-out: plasma concentration (Figure 4g)): 51.8 µM | concentration at 10 min ([1]; male, Sprague-Dawley, rat, plasma, iv, 10 mg/kg, Healthy, i.v., Time 10 min, individual rats, read-out: plasma concentration (Figure 4g)): 36.1 µM | concentration at 10 min ([1]; male, Sprague-Dawley, rat, plasma, iv, 10 mg/kg, Uremic, i.v., Time 10 min, individual rats, read-out: plasma concentration (Figure 4g)): 46 µM | concentration at 0.25 h ([1]; male, Sprague-Dawley, rat, plasma, iv, 10 mg/kg, Uremic, i.v., Time 0.25 h, individual rats, read-out: plasma concentration (Figure 4g)): 27.7 µM | concentration at 0.5 h ([1]; male, Sprague-Dawley, rat, plasma, iv, 10 mg/kg, Uremic, i.v., Time 0.5 h, individual rats, read-out: plasma concentration (Figure 4g)): 19 µM | concentration at 1.5 h ([1]; male, Sprague-Dawley, rat, plasma, iv, 10 mg/kg, Uremic, i.v., Time 1.5 h, individual rats, read-out: plasma concentration (Figure 4g)): 7.2 µM | AUC(0-inf) [1, 3]: 18.5 µM·h | Cmax [1, 3]: 35 ± 9 µM | clearance [1, 3]: 17.9 ± 7.7 mL/min/kg | half-life [1, 3]: 0.867 ± 0.233 h | AUC(0-t) [1, 3]: 17.8 µM·h | MRT last [1, 3]: 0.433 h | AUC(0-inf) [1, 4]: 45.6 µM·h | Cmax [1, 4]: 43 ± 12 µM | clearance [1, 4]: 5.8 ± 2 mL/min/kg | half-life [1, 4]: 1.38 ± 0.783 h | AUC(0-t) [1, 4]: 37 µM·h | MRT last [1, 4]: 0.883 h | inhibition at 10 µM (Dopamine D1): -1% | concentration at 3 h ([2]; plasma, 10 mg/kg, Healthy, s.c., Time 3 h, individual rats, read-out: plasma concentration (Figure 4h)): 2.57 µM | AUC(0-inf) [2, 5]: 19.7 µM·h | MRT [2, 5]: 1.1 h | half-life [2, 5]: 1.32 ± 0.45 h | AUC(0-t) [2, 5]: 19.2 µM·h | AUC(0-inf) [2, 6]: 37.9 µM·h | MRT [2, 6]: 2.07 h | half-life [2, 6]: 2.05 ± 1.07 h | AUC(0-t) [2, 6]: 31.8 µM·h | Cmax ([2]; serum, 10 mg/kg s.c., Healthy): 12 ± 4 µM
